The subject of assay [1] is solid tumours and non-Hodgkin lymphoma. Put plainly: Phase I, 24 h infusion every 2 weeks: antitumour activity. The assay is classed as in vivo, human. The method, then: Aplidine is given as a 24 hour infusion every 2 weeks. The starting dose was 200 μg/m^2/d and dose escalation proceed including so far 400, 800, 1600, and 3200 μg/m^2/d. A total of 18 patients (M/F: 7/11, median age 52, OMS 0/1:10/8) have been entered. […] Among evaluable patients, toxicity consisted of mild grade I-II nausea/vomiting, grade I-II asthenia, and cramping occurring during or immediately after the infusion. No neuromuscular toxicity were reported at the evaluated doses. One patient with an advanced lung cancer and documented tumour progression at the dose of 1600 μg/m^2 developed a haemolytic anaemia and thrombocytopenia that was considered unlikely related to the study drug. […] An open 2-compartment model fits appropriately most plasma concentration profiles. […] The accrual is ongoing to determine the dose limiting toxicity and the dose to be recommended in phase II studies.
Aplidine was given to patients with solid tumour/NHL as a 24 hr infusion/q2w to 35 patients (median: age=51/ECOG=1) with solid tumour (32 pts) or NHL (3 pts). 23/35 patients were previously exposed to ≧3 previous lines of chemotherapy. Nine dose levels (200-7000 μg/m^2/w/q2w) and 65 cycles (120 infusions) were given. […] Toxicity consisted of G2-3 asthenia and emesis in 9-2 patients and 12-1 pts, respectively. G3 nausea/vomiting (≧5000 μg/m^2) was efficiently treated then prevented with 4HT3-regimens. […] At the dose of 5000 μg/m^2/w/q2w, 2 patients experienced transient muscle cramps with reversible G3 CPK-MM elevations. Among 9 patients treated at 6000 μg/m^2/w, 3 patients experienced an increase of CPK-MM and aldolase after the 3rd injection of aplidine. CPK elevations were G1-2 and not symptomatic in 2 patients but a G3 CPK elevation with G3 muscular pain and loss of muscle strength (DLT) was reported in 1 pt. This was reversible with no sequel. […] Ultrastructural electron microscopy indicated no morphological mitochondria alteration but a lost of the thick myosin filaments. At 7000 μg/m^2/q2w, 4 patients have been entered. […] Mechanistic hypothesis and preventive strategies against muscle toxicity are under evaluation.

For assay [2], the system named is lewis lung carcinomas. The note with it: cited from earlier work.

Consider one substance from US20090298752A1, “APLIDINE TREATMENT OF CANCERS” (PHARMA MAR, S.A., priority 1999, published 2009).

Consider aplidine, for which the “response, patient with non-Hodgkin lymphoma” value in assay [1] (Example 6) is listed as “Clinical improvement”. In assay [1] (Example 14), the “Activity observed in NHL” value is recorded as 1/3, the “Activity observed in molecular thyroid” value is listed as 2/2, the “Activity observed in neuroendocrine cancer” value turned out to be 1 pt and the “Activity observed in renal” value was 1/5. In addition, the “antitumour activity in NHL and renal carcinoma” value in assay [1] (Example 18) was “Antitumour activity has been also noted”. Besides, the “activity in SC implanted tumour” value in assay [2] is on record as “active”.
